From PubChem BioAssay (NCI)
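Briefly, cells in 96-well plates were exposed to five compound concentrations for 48 h, and endpoints were estimated by linear interpolation. GI50 marks 50% less growth. TGI marks complete inhibition of growth.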

How the values were obtained:
Experiment in all cases: NCI-60 cell line screen, 48 h
[1] = system: 786-0 renal
[2] = system: A498 renal
[3] = system: A549 NSCLC
[4] = system: BT-549 breast
[5] = system: CAKI-1 renal
[6] = system: CCRF-CEM leukemia
[7] = system: COLO 205 colon
[8] = system: DU-145 prostate
[9] = system: EKVX NSCLC
[10] = system: HCC-2998 colon
[11] = system: HCT-116 colon
[12] = system: HCT-15 colon
[13] = system: HL-60(TB) leukemia
[14] = system: HOP-62 NSCLC
[15] = system: HOP-92 NSCLC
[16] = system: HS 578T breast
[17] = system: HT29 colon
[18] = system: IGROV1 ovarian
[19] = system: K-562 leukemia
[20] = system: KM12 colon
[21] = system: LOX IMVI melanoma
[22] = system: M14 melanoma
[23] = system: MALME-3M melanoma
[24] = system: MCF7 breast
[25] = system: MDA-MB-231 breast
[26] = system: MDA-MB-435
[27] = system: MOLT-4 leukemia
[28] = system: NCI-H226 lung
[29] = system: NCI-H23 lung
[30] = system: NCI-H460 lung
[31] = system: NCI-H522 lung
[32] = system: NCI/ADR-RES ovarian
[33] = system: OVCAR-3 ovarian
[34] = system: OVCAR-4 ovarian
[35] = system: OVCAR-5 ovarian
[36] = system: OVCAR-8 ovarian
[37] = system: PC-3 prostate
[38] = system: RPMI-8226 leukemia
[39] = system: SF-268 CNS
[40] = system: SF-295 CNS
[41] = system: SF-539 CNS
[42] = system: SK-MEL-2 melanoma
[43] = system: SK-MEL-28 melanoma
[44] = system: SK-MEL-5 melanoma
[45] = system: SK-OV-3 ovarian
[46] = system: SN12C renal
[47] = system: SNB-19 CNS
[48] = system: SNB-75 CNS
[49] = system: SR leukemia
[50] = system: SW-620 colon
[51] = system: T-47D breast
[52] = system: TK-10 renal
[53] = system: U251 CNS
[54] = system: UACC-257 melanoma
[55] = system: UACC-62 melanoma

`C[C@@H]1CC[C@@H]2[C@@H]1[C@H](OC(=O)/C=C/C1CCCCC1)[C@]1(C3CCCCC3)C[C@@H](OC(=O)CO)[C@@]2(C)O1` gave a GI50 [1] of 12 µM, a TGI [1] of 24.1 µM and a GI50 [2] of 0.0209 µM. The TGI [2] was 0.0801 µM, the GI50 [3] was 14.2 µM and the TGI [3] was 27.1 µM. The GI50 [4] was 0.0551 µM, the TGI [4] was 5.7 µM and the GI50 [5] was 0.034 µM. The TGI [5] was 14.8 µM, the GI50 [6] was 16.4 µM and the TGI [6] was 34.7 µM. The GI50 [7] was 15.4 µM, the TGI [7] was 30 µM and the GI50 [8] was 14.3 µM. For the same compound, the TGI [8] was 27.3 µM, the GI50 [9] was 12.1 µM and the TGI [9] was 24.4 µM. It also gave a GI50 [10] of 16 µM, a TGI [10] of 29.6 µM and a GI50 [11] of 13.5 µM. For the same compound, the TGI [11] was 26.6 µM, the GI50 [12] was 14 µM and the TGI [12] was 26.7 µM. It also gave a GI50 [13] of 16.3 µM, a TGI [13] of 35.3 µM and a GI50 [14] of 14.6 µM. It also gave a TGI [14] of 27.5 µM, a GI50 [15] of 7.14 µM and a TGI [15] of 19.6 µM. The GI50 [16] was 0.0162 µM, the TGI [16] was 0.0556 µM and the GI50 [17] was 13.1 µM. The TGI [17] was 26.7 µM, the GI50 [18] was 14.4 µM and the TGI [18] was 29.8 µM. The GI50 [19] was 15.9 µM, the TGI [19] was 35.9 µM and the GI50 [20] was 14.8 µM. The TGI [20] was 31.1 µM, the GI50 [21] was 14.3 µM and the TGI [21] was 27.1 µM. For the same compound, the GI50 [22] was 14.8 µM, the TGI [22] was 31.6 µM and the GI50 [23] was 14.5 µM. For the same compound, the TGI [23] was 28.9 µM, the GI50 [24] was 12.8 µM and the TGI [24] was 25.6 µM. It also gave a GI50 [25] of 15.4 µM, a TGI [25] of 29.6 µM and a GI50 [26] of 15.5 µM. The TGI [26] was 31 µM, the GI50 [27] was 13.7 µM and the TGI [27] was 31.3 µM. The GI50 [28] was 14.3 µM, the TGI [28] was 28 µM and the GI50 [29] was 16.6 µM. For the same compound, the TGI [29] was 31.7 µM, the GI50 [30] was 14.6 µM and the TGI [30] was 30 µM. It also gave a GI50 [31] of 13.7 µM, a TGI [31] of 27.1 µM and a GI50 [32] of 0.579 µM. The TGI [32] was 18.4 µM, the GI50 [33] was 13.8 µM and the TGI [33] was 26.7 µM. For the same compound, the GI50 [34] was 13.1 µM, the TGI [34] was 26.6 µM and the GI50 [35] was 15.8 µM. It also gave a TGI [35] of 29.9 µM, a GI50 [36] of 10.7 µM and a TGI [36] of 24.1 µM. The GI50 [37] was 11.5 µM, the TGI [37] was 24.3 µM and the GI50 [38] was 15.2 µM. The TGI [38] was 34.5 µM, the GI50 [39] was 0.859 µM and the TGI [39] was 19.7 µM. For the same compound, the GI50 [40] was 14.3 µM, the TGI [40] was 26.7 µM and the GI50 [41] was 14.3 µM. The TGI [41] was 27.9 µM, the GI50 [42] was 15 µM and the TGI [42] was 28.5 µM. The GI50 [43] was 15.1 µM, the TGI [43] was 29.6 µM and the GI50 [44] was 14 µM. For the same compound, the TGI [44] was 26.6 µM, the GI50 [45] was 15 µM and the TGI [45] was 27.7 µM. It also gave a GI50 [46] of 0.0321 µM, a TGI [46] of 15.1 µM and a GI50 [47] of 14.4 µM. It also gave a TGI [47] of 27 µM, a GI50 [48] of 1.32 µM and a TGI [48] of 16.5 µM. For the same compound, the GI50 [49] was 14 µM, the TGI [49] was 32.9 µM and the GI50 [50] was 15.5 µM. It also gave a TGI [50] of 29.8 µM, a GI50 [51] of 11.1 µM and a TGI [51] of 24.1 µM. The GI50 [52] was 15.8 µM, the TGI [52] was 29.5 µM and the GI50 [53] was 13.7 µM. The TGI [53] was 26.1 µM, the GI50 [54] was 15.8 µM and the TGI [54] was 29.6 µM. For the same compound, the GI50 [55] was 13.5 µM and the TGI [55] was 26.8 µM.
